Measurements taken from PubChem BioAssay AID2060488 (Molecular Pharmacology Branch, DTP, NCI, 2025).
Several values for one entry are separate records, joined by “and”; a condition that tells them apart may be missing. Identical values can stand only once.

Test system: 966289-007-R4-J1-PDC complex spheroid viability
Experiment: Anticancer human tumor 966289-007-R4-J1-PDC patient-derived pancreatic adenocarcinoma cell line growth inhibition [GQUAD]
Details: for viability, T/C: stronger effect = lower value; active = viability on the fitted dose curve at most 10% of control; inactive = the rest
Source text: DNA G-quadruplex Stabilizer Agents in Combinations in Complex Spheroids
A high-throughput screen of multi-cell type tumor spheroids was designed to identify active combinations of DNA G-quadruplex stabilizer agents and targeted small molecules. Complex spheroids include a stromal component modeled by human endothelial cells (HUVEC) and fibroblasts modeled by human mesenchymal stem cells (MSCs). The concentration ranges selected for each drug and investigational agent were based upon clinically achievable concentrations if the clinical Cmax of the agent was known.
Compounds. The drugs and investigational agents: pidnarulex (CX-5461; NSC782164), APTO-253 (NSC789042), BRACO-19 (NSC847499), peposertib (NSC802822), ceralasertib (NSC780249), elimusertib (NSC800525), camonsertib (NSC841442), AZD-1390 (NSC803789), olaparib (NSC753686), talazoparib (NSC767125), ART-558 (NSC835418), sotorasib (NSC818433), MRTX-1133 (NSC836407), SN-38 (NSC673596), topotecan (NSC609699), etoposide (NSC141540), doxorubicin (NSC123127), gemcitabine (NSC613327), 5-fluorouracil (NSC19893), paclitaxel (NSC125973), vemurafenib (NSC761431), panobinostat (NSC761190), R-306465 (JNJ-16241199; NSC773264), adavosertib (NSC754352), TP-3654 (NSC805149), carboplatin (NSC241240), KSQ-4279 (NSC840948), and staurosporine (NSC755774) were obtained from the National Cancer Institute (NCI) Developmental Therapeutics Program Chemical Repository (34). The FDA-approved anticancer drug set is available from the NCI Developmental Therapeutics Program. […] The stock solutions were prepared in dimethyl sulfoxide (DMSO, Sigma-Aldrich, St. Louis, MO, cat. D2650) at 800-fold the tested concentration and stored at -70 degrees C prior to their use. All drugs and investigational agents were tested over a range starting from a high concentration at or near the clinical Cmax and decreasing in half-log increments. If the clinical Cmax for an agent had not been determined, the highest concentration tested was 10 microM.
2.3 Cell Culture. All cells were maintained in an incubator at 37 degrees C and 5% CO2 with 95% humidity. The PDC lines were cultured according to standard operating procedures established by the NCI PDMR. All PDCs were thawed and cultured in Matrigel-coated flasks prepared with a working solution of 1X Ham's F-12 nutrient mix, without supplementation (Invitrogen, cat. 11765054), 100 U/mL penicillin-streptomycin (Invitrogen, cat. 15140122), and 2.5% Matrigel (Corning Inc., cat. 354248) for the first three passages. The 857933-349-R-J2-PDC line was cultured in 6C/Colon 1B media, which includes advanced DMEM/F-12 (Thermo Fisher Scientific, cat. 12634028), 10 mM HEPES (Thermo Fisher Scientific, cat. 15630080), 1X GlutaMAX supplement (Thermo Fisher Scientific, cat. 35050061), 0.1 mg/mL primocin (InvivoGen, cat. ant-pm-2), 10% defined fetal bovine serum, heat inactivated (HyClone Laboratories Inc., cat. SH30070.03HI), 50% L-WRN conditioned media (ATCC, cat. CRL-3276), 1.25 mM N-Acetyl-L-cysteine (Sigma-Aldrich, cat. A9165), 10 mM nicotinamide (Sigma-Aldrich, cat. N0636), 1X B-27 supplement (Thermo Fisher Scientific, cat. 17504044), 1X N-2 supplement (Thermo Fisher Scientific, cat. 17502048), 10 microM Y-27632 dihydrochloride (Tocris Bioscience, cat. 1254), and 50 ng/mL human EGF recombinant protein (Thermo Fisher Scientific, cat. PHG0311). The 485176-168-R4-J1-PDC line was cultured in Panc media, which includes all 6C/Colon 1B media components plus 100 ng/mL human FGF-10 (Thermo Fisher Scientific, cat. 100-26), 500 nM SB-431542 (Selleckchem, cat. S1067), and gastrin (Tocris, cat. 3006).
[…]
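Also: spheroids exposed to the agents for seven days before readout.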
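For viability, T/C in this document: percent viability relative to DMSO vehicle control wells taken as 100%.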

CC1COCCN1c1cc(-c2ccnn2C)c2ccnc(-c3ccn[nH]3)c2n1 (configuration not stated)
active: viability, T/C (compound 1 µM) 6.65% and 12.3% and 6.94% | viability, T/C (compound 3.16 µM) 4.32% and 6.18% and 4.41% | viability, T/C (compound 10 µM) 3.06% and 4.67% and 3.7%
0.163 µM and 0.231 µM and 0.176 µM: IC50 (curve of compound)
inactive: viability, T/C (compound 0.0316 µM) 112% and 106% and 104% | viability, T/C (compound 0.1 µM) 75.1% and 95% and 82.1% | viability, T/C (compound 0.316 µM) 15.9% and 32.8% and 16.8%

Cn1ncnc1[C@H]1c2n[nH]c(=O)c3cc(F)cc(c23)N[C@@H]1c1ccc(F)cc1 + Cc1cnc(CNC(=O)c2c(=O)c3ccc(N4CCCN(C)CC4)nc3n3c2sc2ccccc23)cn1
< 0.000999 µM: IC50 (curve of first compound, second compound 0.1 µM) | IC50 (curve of first compound, second compound 0.316 µM) | IC50 (curve of first compound, second compound 1 µM) | IC50 (curve of first compound, second compound 3.16 µM) | IC50 (curve of first compound, second compound 10 µM)
active: viability, T/C (second compound 0.0316 µM, first compound 0.316 µM) 7.23% | viability, T/C (second compound 0.1 µM, first compound 0.0999 µM) 5.67% | viability, T/C (second compound 0.1 µM, first compound 0.316 µM) 3.67% | viability, T/C (second compound 0.316 µM, first compound 0.00999 µM) 7.01% | viability, T/C (second compound 0.316 µM, first compound 0.0316 µM) 6.26% | viability, T/C (second compound 0.316 µM, first compound 0.0999 µM) 4.34% | viability, T/C (second compound 0.316 µM, first compound 0.316 µM) 2.5% | viability, T/C (second compound 1 µM, first compound 0.000999 µM) 5.61% | viability, T/C (second compound 1 µM, first compound 0.00316 µM) 5.81% | viability, T/C (second compound 1 µM, first compound 0.00999 µM) 4.63% | viability, T/C (second compound 1 µM, first compound 0.0316 µM) 3.57% | viability, T/C (second compound 1 µM, first compound 0.0999 µM) 2.89% | viability, T/C (second compound 1 µM, first compound 0.316 µM) 1.85% | viability, T/C (second compound 3.16 µM, first compound 0.000999 µM) 4.32% | viability, T/C (second compound 3.16 µM, first compound 0.00316 µM) 4.8% | viability, T/C (second compound 3.16 µM, first compound 0.00999 µM) 3.43% | viability, T/C (second compound 3.16 µM, first compound 0.0316 µM) 2.17% | viability, T/C (second compound 3.16 µM, first compound 0.0999 µM) 0.89% | viability, T/C (second compound 3.16 µM, first compound 0.316 µM) 0.51% | viability, T/C (second compound 10 µM, first compound 0.000999 µM) 0.1% | viability, T/C (second compound 10 µM, first compound 0.00316 µM) 0.15% | viability, T/C (second compound 10 µM, first compound 0.00999 µM) 0.12% | viability, T/C (second compound 10 µM, first compound 0.0316 µM) 0.13% | viability, T/C (second compound 10 µM, first compound 0.0999 µM) 0.66% | viability, T/C (second compound 10 µM, first compound 0.316 µM) 0.13%
0.0199 µM: IC50 (curve of first compound, second compound 0.0316 µM)
inactive: viability, T/C (second compound 0.0316 µM, first compound 0.000999 µM) 110% | viability, T/C (second compound 0.0316 µM, first compound 0.00316 µM) 98.6% | viability, T/C (second compound 0.0316 µM, first compound 0.00999 µM) 85.6% | viability, T/C (second compound 0.0316 µM, first compound 0.0316 µM) 25.9% | viability, T/C (second compound 0.0316 µM, first compound 0.0999 µM) 12.9% | viability, T/C (second compound 0.1 µM, first compound 0.000999 µM) 42.7% | viability, T/C (second compound 0.1 µM, first compound 0.00316 µM) 25.4% | viability, T/C (second compound 0.1 µM, first compound 0.00999 µM) 17.3% | viability, T/C (second compound 0.1 µM, first compound 0.0316 µM) 12.5% | viability, T/C (second compound 0.316 µM, first compound 0.000999 µM) 13.8% | viability, T/C (second compound 0.316 µM, first compound 0.00316 µM) 10%

Cc1[nH]c2ccc(F)cc2c1-c1nc2c3cccnc3c3ncccc3c2[nH]1
> 10 µM: IC50 (compound alone, run of 03/18/2024) | IC50 (compound alone, run of 03/26/2024)
inactive: viability, T/C (compound 0.0316 µM) 104% [middle of 11 runs] | viability, T/C (compound 0.1 µM) 108% [middle of 11 runs] | viability, T/C (compound 0.316 µM) 109% [middle of 11 runs] | viability, T/C (compound 1 µM) 109% [middle of 11 runs] | viability, T/C (compound 3.16 µM) 106% [middle of 11 runs] | viability, T/C (compound 10 µM) 98.2% [middle of 11 runs]
